Assay results from patent US9873670B2, “Arylquinoline and analog compounds and use thereof to treat cancer” (UNIVERSITY OF KENTUCKY RESEARCH FOUNDATION, priority 2013, dated 2018).
Entries after “also recorded” stand apart in the source; their conditions may differ.

Assays:
LNCaP = experiment: Apoptosis, LNCaP cells; assay type: cell-based, human; conditions: 500 nM
Description: (§1) See Hebbar, N., Wang, C. & Rangnekar, V. M. J Cell Phys 227, 3715-3721 (2012) and Shrestha-Bhattarai, T., Hebbar, N. & Rangnekar, V. M. Cancer Cell 24, 3-5 (2013). A total of three independent experiments were performed; and approximately 500 cells were scored in each experiment for apoptosis under a fluorescent microscope. Cell surface GRP78 expression on the cancer cell surface was quantified by FACS analysis in the Flow Cytometry Shared Resource Facility, Markey Cancer Center as previously described. See Hebbar, N., Wang, C. & Rangnekar, V. M. J Cell Phys 227, 3715-3721 (2012).

[1] = system: cancer cells co-cultured with Par-4-/- MEFs; experiment: Apoptosis in co-cultures of Par-4-/- MEFs and cancer cells; assay type: cell-based; conditions: 500 nM
Description: (§2) Top: Cancer cells were co-cultured with MEFs and treated with Arylquin 1 (500 nM) or vehicle and tested for apoptosis. Bottom: Serum from mice injected with Arylquin 1 (Aq) or corn oil vehicle (V), was examined by Western blot analysis (not shown). Aliquots of serum from these mice were either directly added to the growth medium of cells in culture, or incubated with the indicated antibody, and then added to the growth medium of PC-3 MM2 cells to test for apoptosis.
as §1

[2] = system: mouse embryonic fibroblast (MEF) cells; experiment: Par-4 secretion from normal mouse fibroblasts (Western blot of conditioned medium); assay type: cell-based
Description: In another aspect, the subject technology provides assays for screening test compounds that interfere with vimentin binding to PAR-4 or which cause release of vimentin-bound PAR-4. In a typical assay, cells, such as HEL cells, are seeded onto an appropriate support, such as 60-mm plates containing supplemented growth medium (e.g., supplemented with 0.1% serum) at a desired confluency, such as 40-70% confluency, and treated with the test compound (e.g., 500 nM) or control vehicle. The cells are allowed to grow for a period of time, such as 24 hours, after which the conditioned medium (CM) is concentrated (e.g., concentrated 30× to 100 μl using Millipore tubes (Amicon Ultra centrifugal filters, Ultracel-10K) by 15 min centrifugation at 4500 rpm). The concentrated CM is then subjected to co-immunoprecipitation using detectably labeled PAR-4 and vimentin antibodies in the presence of various concentrations of purified PAR-4 and the precipitated proteins are resolved by SDS-PAGE and analyzed by Western blot analysis. The amount of immunoprecipitated PAR-4-vimentin complex is compared to that of control samples. For example, chemiluminescent signals may be quantified in the BIO-RAD Molecular Imager ChemiDoc XRS+Imaging system using Quantity One software. Induction of Par-4 secretion by the test drug (e.g., 500 nM), as judged by this Western blot analysis procedure, will indicate dissociation of Par-4 from vimentin. […] For such experiments, cells may be treated with the test drug (e.g., 500 nM) or vehicle for an appropriate period of time, such as 24 hours, and then cell lysates are prepared and subjected to immunoprecipitation using an appropriate amount of a Par-4 antibody, vimentin antibody or control IgG antibody by using any standard immunoprecipitation procedure. Following […], the complexes are resolved, preferably by Western blot analysis as described above. If the drug inhibits the binding of Par-4 to vimentin, it will be reflected in the lack of co-immunoprecipitation of Par-4 with the vimentin antibody, and co-immunoprecipitation of vimentin with the Par-4 antibody.
Co-Immunoprecipitation and Western blot analysis: Protein extracted from cell lysates was filtered, pre-cleared with 25 μL (bed volume) of protein G-Sepharose beads and immunoprecipitated with 1 μg of respective antibodies. The eluted proteins were resolved by SDS-PAGE, and subjected to Western blot analysis as described.
To identify Par-4 secretagogues, we synthesized and screened 3-arylquinolines as well as related quinolones and quinothiolones for the secretion of Par-4 protein from normal fibroblasts under conditions that are not toxic to the cells.
We screened representative members of each of these heterocyclic families on a compound-by-compound basis for the secretion of Par-4 protein from normal mouse fibroblasts under conditions that were not toxic to the cells. Initial expectations were that these heterocycles would serve as Nutlin-3a surrogates and inhibit MDM2, but studies reported herein established a completely different mechanism of action, reflecting that the structural dissimilarities between these heterocycles and Nutlin-3a outweighed the similarities that led to their initial selection for screening.

Par-4 in serum = experiment: Circulating Par-4 in serum of injected mice; assay type: in vivo, C57BL/6 mice; conditions: 10 mg/kg intraperitoneal, 24 h
Description: (§3) Animal experiments: C57BL/6 mice were injected via the intraperitoneal route with Arylquin 1 (10 mg/kg body weight) or corn oil vehicle, and whole-blood samples were collected 24 h later. Serum was separated from the blood samples, heated at 56° C. to inactivate complement. Aliquots of the mouse serum samples were added to the growth medium (final 20% mouse serum) of normal and cancer cells in culture and tested for induction of ex vivo apoptosis in cancer cells. All animal procedures were performed with University of Kentucky IACUC approval.

PC-3 cells = experiment: Apoptosis, PC-3 cells; assay type: cell-based, human; conditions: 500 nM
Description: as §1

cell surface GRP78 = experiment: Paracrine apoptosis by CM from treated MEFs with GRP78 neutralizing antibody; assay type: cell-based; conditions: CM from Par-4+/+ MEFs treated with 500 nM
Description: FIGS. 4A and 4B are bar graphs illustrating percent cell surface GRP-78 expression and apoposis activity for an arylquinoline of the present disclosure. FIG. 4A is a bar graph showing cell surface GRP78 levels in cancer cells treated with CM from MEFs exposed to Arylquin 1. Par-4+/+ MEFs or Par-4−/− MEFs were treated with vehicle or Arylquin 1 (500 nM) for 24 h. The CM from these MEFs was incubated with the indicated cancer cells for 24 h. The cancer cells were then subjected to FACS analysis for cell surface GRP78 expression. Data shown represent mean values of three experiments±s.d. Asterisks (**) or (*) indicate statistical significance (P<0.0001) or (P<0.001), respectively, based on two-way ANOVA with data normality and equality of variance assumptions. […] After 24 h, the cancer cells were scored for apoptosis by ICC for active caspase-3. […]
See Hebbar, N., Wang, C. & Rangnekar, V. M. J Cell Phys 227, 3715-3721 (2012) and Shrestha-Bhattarai, T., Hebbar, N. & Rangnekar, V. M. Cancer Cell 24, 3-5 (2013). A total of three independent experiments were performed; and approximately 500 cells were scored in each experiment for apoptosis under a fluorescent microscope. Cell surface GRP78 expression on the cancer cell surface was quantified by FACS analysis in the Flow Cytometry Shared Resource Facility, Markey Cancer Center as previously described. […]

DU145 cells = experiment: Apoptosis, DU145 cells; assay type: cell-based, human; conditions: 500 nM
Description: as §1

[3] = system: cancer cell cultures (PC-3 MM2 cells); experiment: Ex vivo apoptosis of cancer cell cultures by serum from treated mice; assay type: in vivo, C57BL/6 mice (serum)
Description: as §2, §3

Compound: CN(C)c1ccc2cc(-c3ccccc3F)c(N)nc2c1 [Arylquin 1, 3-(2-fluorophenyl)-N^7,N^7-dimethylquinoline-2,7-diamine]
- apoptosis (LNCaP): not in LNCaP or DU145 cells
- apoptosis of cancer cells in co-culture [1]: did not induce apoptosis
- Par-4 secretion ([2]; MEF cells): dose-dependent secretion
- level of Par-4 secretion, structure-activity comparison among analogs ([2]; normal mouse fibroblasts, conditions not toxic to the cells): most active; also recorded: highest levels of Par-4 secretion
- Par-4 secretion in serum relative to vehicle control (Par-4 in serum): 5 fold
- apoptosis (PC-3 cells): induced apoptosis
- mediation of paracrine apoptosis (cell surface GRP78): mediated via cell surface GRP78
- apoptosis (DU145 cells): not in LNCaP or DU145 cells
- pro-apoptotic activity in serum after Par-4 antibody ([3]; serum incubated with Par-4 antibody): neutralized by the Par-4 antibody
- ex vivo apoptosis of cancer cell cultures by serum ([3]; serum of treated vs vehicle-treated mice, final 20% mouse serum): significantly higher (P<0.001) ex vivo apoptosis
